From PMC10304880, “Novel Tryptanthrin Derivatives with Selectivity as c–Jun N–Terminal Kinase (JNK) 3 Inhibitors” (Molecules, 2023)
Read-outs that look alike come from different tables or passages of the source.

Tests used:
JNK1 [1] = biological target: T1, JNK1 (Homo sapiens, UniProt P45983); assay: KINOMEscan JNK1 binding (Kd); conditions: 12-point series, max 33 μM, duplicate
T1 construct: purchased Eurofins Pharma Discovery (KINOMEscan service)
Description: (§1) All compounds were evaluated for their ability to bind to JNK1-3 using the KINOMEscan platform.
(§2) Compounds were submitted for dissociation constant (Kd) determination using KINOMEscan (Eurofins Pharma Discovery, San Diego, CA, USA), as described previously. […] Primary screening at fixed concentrations of compounds was performed in duplicate. To determine dissociation constant Kd, a 12-point half-log dilution series (a maximum concentration of 33 μM) was used.

JNK2 [2] = biological target: T2, JNK2 (Homo sapiens, UniProt P45984); assay: KINOMEscan JNK2 binding (Kd); conditions: 12-point series, max 33 μM, duplicate
T2 construct: purchased Eurofins Pharma Discovery (KINOMEscan service)
T2 sequence (P45984 whole entry): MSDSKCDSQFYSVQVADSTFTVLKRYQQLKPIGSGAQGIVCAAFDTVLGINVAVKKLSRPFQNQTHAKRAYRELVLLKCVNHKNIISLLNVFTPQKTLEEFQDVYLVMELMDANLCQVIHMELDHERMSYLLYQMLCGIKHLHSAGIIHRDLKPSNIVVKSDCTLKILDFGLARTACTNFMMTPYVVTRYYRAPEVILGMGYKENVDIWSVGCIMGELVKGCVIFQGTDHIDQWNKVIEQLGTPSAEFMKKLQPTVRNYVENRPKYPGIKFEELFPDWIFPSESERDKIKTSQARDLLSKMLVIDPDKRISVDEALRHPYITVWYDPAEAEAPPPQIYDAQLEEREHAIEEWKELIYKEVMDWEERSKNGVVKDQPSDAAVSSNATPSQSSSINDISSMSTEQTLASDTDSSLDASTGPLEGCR
Description: as §1, §2

JNK3 [3] = biological target: T3, JNK3 (Homo sapiens, UniProt P53779); assay: KINOMEscan JNK3 binding (Kd); conditions: for Kd: KINOMEscan, 12-point series, max 33 μM, duplicate; for Selectivity Index JNK1/JNK3 / Selectivity Index JNK2/JNK3: ratio of Kd values
T3 construct: purchased Eurofins Pharma Discovery (KINOMEscan service)
T3 sequence (P53779 whole entry): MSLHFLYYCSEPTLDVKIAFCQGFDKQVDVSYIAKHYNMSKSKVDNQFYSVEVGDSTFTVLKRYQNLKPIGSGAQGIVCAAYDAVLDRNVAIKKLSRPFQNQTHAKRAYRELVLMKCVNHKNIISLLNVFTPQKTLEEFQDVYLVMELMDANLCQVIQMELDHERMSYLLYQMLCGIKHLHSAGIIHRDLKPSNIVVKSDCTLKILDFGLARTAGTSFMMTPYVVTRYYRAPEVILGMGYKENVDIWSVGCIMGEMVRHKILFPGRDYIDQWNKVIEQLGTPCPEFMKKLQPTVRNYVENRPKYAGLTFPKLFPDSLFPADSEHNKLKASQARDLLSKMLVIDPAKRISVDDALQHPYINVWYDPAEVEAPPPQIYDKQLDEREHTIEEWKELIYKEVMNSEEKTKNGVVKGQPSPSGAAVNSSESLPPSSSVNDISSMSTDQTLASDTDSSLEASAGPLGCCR
Description: as §1, §2

[4] = CellTiter-Glo cytotoxicity in THP-1Blue cells; assay type: cell-based; conditions: human, 24 h incubation
Description: (§3) Prior to evaluation of the compounds in cell-based assays, we measured their cytotoxicity in human monocytic THP-1Blue and MonoMac-6 cells during a 24 h incubation. […] Thus, these compounds were all excluded from subsequent testing in these cell lines.
(§4) Cytotoxicity was analyzed with a CellTiter-Glo Luminescent Cell Viability Assay Kit from Promega (Madison, WI, USA), according to the manufacturer’s protocol. Cells were treated with the compound under investigation and cultivated for 24 h. After treatment, the cells were allowed to equilibrate to room temperature for 30 min, substrate was added, and the luminescence measured using a Fluoroscan Ascent FL (Thermo Fisher Scientific, Waltham, MA, USA). The cell IC50 values were calculated by plotting the percentage inhibition against the logarithm of inhibitor concentration (at least five points).

[5] = test system: NF-κB/AP-1 transcriptional activity in THP-1Blue cells; assay: LPS-induced NF-κB/AP-1 alkaline phosphatase reporter assay in THP-1Blue cells; assay type: cell-based; conditions: Homo sapiens, 30 min pretreatment, 250 ng/mL LPS, 24 h; read-out: AP Production in THP–1Blue IC50
Description: Activation of AP-1/NF-κB was measured using an alkaline phosphatase reporter gene assay in THP1-Blue cells. Human monocytic THP-1Blue cells were stably transfected with a secreted embryonic alkaline phosphatase gene that was under the control of a promoter inducible by AP-1/NF-κB.
(§5) Figure 2 Effect of compounds 4d and 4e on NF-κB/AP-1 activity and IL-6 production. Panel (A) THP-1Blue cells were pretreated with the indicated compounds or DMSO for 30 min, followed by addition of 250 ng/mL LPS or buffer for 24 h. […] Panel (B) MonoMac-6 cells were pretreated with the indicated compounds or DMSO for 30 min, followed by addition of 250 ng/mL LPS or buffer for 24 h. Production of IL-6 in the supernatants was evaluated with ELISA. The data in each panel are presented as the mean ± S.D. of triplicate samples from one experiment that is representative of three independent experiments.

[6] = test system: c-Jun phosphorylation in MonoMac-6 cells; assay: LPS-induced c-Jun (Ser63) phosphorylation in MonoMac-6 cells (sandwich ELISA); assay type: cell-based, human; conditions: 30 min pretreatment, LPS 500 ng/mL
Description: After 30 min pretreatment with the compounds, the cells were stimulated with LPS (500 ng/mL), and the level of phospho-c-Jun (S63) was determined by a sandwich ELISA.
MonoMac-6 cell lysates were prepared using Cell Lysis Buffer (Cell Signaling Technology, Danvers, MA, USA). The phospho-c-Jun content was measured with ELISA using the PathScan Phospho-c-Jun (Ser63) Sandwich ELISA Kit II (Cell Signaling Technology, USA), and the data are shown as the ratio of phospho-c-Jun vs. total c-Jun, which was measured using the FastScanTM Total c-Jun ELISA kit (Cell Signaling Technology).
Figure 3 Effect of the compounds 4d, 4e, 4h, and IQ-1S on LPS-induced c-Jun phosphorylation. Human MonoMac-6 monocytic cells were pretreated with the indicated concentrations of compounds or 0.5% DMSO for 30 min, followed by treatment with LPS (500 ng/mL) or control buffer for another 30 min. The cells were lysed, and the lysates were analyzed with ELISA for phospho-c-Jun (Ser63) and total c-Jun. The data are represented as the ratio of phospho-c-Jun to total c-Jun. The data are presented as the mean ± S.D. of triplicate samples from one experiment that is representative of three independent experiments. * Significant differences (p < 0.05) with LPS control.

[7] = test system: IL-6 production in MonoMac-6 cells; assay: LPS-induced IL-6 production in MonoMac-6 cells (ELISA); assay type: cell-based, human; conditions: 250 ng/mL LPS, 24 h
Description: All cells were cultured at 37 °C in a humidified atmosphere containing 5% CO2. Human THP-1Blue monocytic cells obtained from InvivoGen (San Diego, CA, USA) were cultured in RPMI 1640 medium (Mediatech Inc., Herndon, VA, USA) supplemented with 10% (v/v) fetal bovine serum (FBS), 4.5 g/L glucose, 100 μg/mL streptomycin, 100 U/mL penicillin, 100 μg/mL phleomycin (Zeocin), and 10 μg/mL blasticidin S. Human monocyte-macrophage MonoMac-6 cells (Deutsche Sammlung von Mikroorganismen und Zellkulturen GmbH, Braunschweig, Germany) were grown in RPMI 1640 medium supplemented with 10% (v/v) FBS, 10 μg/mL bovine insulin, 100 μg/mL streptomycin, and 100 U/mL penicillin.
as §5, with “Panel” for “Figure 2 Effect of compounds 4d and 4e on NF-κB/AP-1 activity and IL-6 production. Panel”

[8] = CellTiter-Glo cytotoxicity in MonoMac-6 cells; assay type: cell-based; conditions: human, 24 h incubation
Description: as §3, §4

JNK1 [9] = biological target: T1, JNK1; conditions: Figure 1; ref [49],[50],[51]; cited from earlier work
JNK3 [10] = biological target: T3, JNK3; conditions: cited from earlier work; for Kd: Figure 1, ref [49],[50],[51]
JNK2 [11] = biological target: T2, JNK2; conditions: Figure 1; ref [49],[50],[51]; cited from earlier work
[12] = Homo sapiens, MONO-MAC-6, 30 min pretreatment

T1 sequence (P45983 whole entry): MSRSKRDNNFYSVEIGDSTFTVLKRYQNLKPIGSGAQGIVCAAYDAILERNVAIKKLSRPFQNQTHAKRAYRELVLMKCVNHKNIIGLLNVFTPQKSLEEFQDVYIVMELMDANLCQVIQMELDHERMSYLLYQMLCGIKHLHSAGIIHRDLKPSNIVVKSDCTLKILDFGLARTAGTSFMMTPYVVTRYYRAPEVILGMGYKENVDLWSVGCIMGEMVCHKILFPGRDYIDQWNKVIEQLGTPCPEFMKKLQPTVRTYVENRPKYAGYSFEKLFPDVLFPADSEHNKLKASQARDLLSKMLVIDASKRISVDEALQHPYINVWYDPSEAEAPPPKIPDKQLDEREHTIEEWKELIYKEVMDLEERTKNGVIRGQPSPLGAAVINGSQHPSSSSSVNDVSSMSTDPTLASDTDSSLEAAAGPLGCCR

Row | SMILES | Kd (JNK1 [1]) | Kd (JNK2 [2]) | selectivity index (JNK3 versus JNK1 and JNK2) (JNK3 [3]) | Kd (JNK3 [3]) | Selectivity Index JNK1/JNK3 (JNK3 [3]) | Selectivity Index JNK2/JNK3 (JNK3 [3]) | IC50 at 24 h [4] | IC50 [5] | LPS-induced c-Jun phosphorylation (phospho-c-Jun S63 / total c-Jun) [6] | IC50 ([7]; 30 min pretreatment) | IC50 [7, 12] | IC50 at 24 h [8] | melting point | Kd (JNK1 [9]) | Kd (JNK3 [10]) | Kd (JNK2 [11]) | selectivity for JNK3 binding versus JNK1/JNK2 (JNK3 [10]; ref [49])
1 | COc1ccc2c(c1)C(=NO)c1nc3ccccc3c(=O)n1-2 [Compound 4d, 8-Methoxyindolo[2,1-b]quinazolin-6,12-dione Oxime] | > 30 µM | > 30 µM | > 7 | 0.34 ± 0.03 µM | >100 | >100 | > 50 µM | 0.8 ± 0.3 µM | dose-dependently inhibited | 0.7 ± 0.1 µM | < 1 µM | > 50 µM | > 225 °C (dec.) | – | – | – | –
2 | O=c1c2ccccc2nc2n1-c1ccc(-c3ccccc3)cc1C2=NO [Compound 4e, 8-Phenylindolo[2,1-b]quinazolin-6,12-dione Oxime] | > 30 µM | > 30 µM | > 7 | 0.34 ± 0.04 µM | >100 | >100 | > 50 µM | 1.6 ± 0.1 µM | dose-dependently inhibited | – | – | > 50 µM | > 225 °C (dec.) | – | – | – | –
3 | Cc1ccc2c(c1)-n1c(nc3ccccc3c1=O)C2=NO [Compound 4h, 9-Methylindolo[2,1-b]quinazolin-6,12-dione Oxime] | 0.67 ± 0.35 µM | 0.57 ± 0.12 µM | – | 0.23 ± 0.04 µM | 2.9 | 2.5 | > 50 µM | – | dose-dependently inhibited | – | – | > 50 µM | > 225 °C (dec.) | – | – | – | –
4 | COc1ccc2c(c1)C(=NO)c1nc3ccc(OC)cc3c(=O)n1-2 [Compound 4q, 2,8-Dimethoxylindolo[2,1-b]quinazolin-6,12-dione Oxime] | > 30 µM | > 30 µM | – | > 30 µM | – | – | > 50 µM | 4.6 ± 0.3 µM | – | – | 1.3 ± 0.4 µM | > 50 µM | 262 to 263 °C | – | – | – | –
5 | O=c1c2c(Br)cccc2nc2n1-c1cccc(Br)c1C2=NO [Compound 4u, 1,7-Dibromoindolo[2,1-b]quinazolin-6,12-dione Oxime] | > 30 µM | > 30 µM | – | > 30 µM | – | – | > 50 µM | > 50 µM | – | – | > 50 µM | > 50 µM | > 300 °C (dec.) | – | – | – | –
6 | CCOC(=O)CON=C1c2ccccc2-n2c1nc1ccccc1c2=O [Compound 5a, Ethyl 2-(((12-Oxoindolo[2,1-b]quinazolin-6(12H)-ylidene)amino)oxy)acetate] | > 30 µM | > 30 µM | – | > 30 µM | – | – | > 50 µM | > 50 µM | – | – | > 50 µM | > 50 µM | 218 °C | – | – | – | –
7 | CCOC(=O)C(ON=C1c2ccccc2-n2c1nc1ccccc1c2=O)C(=O)OCC [Compound 5b, Diethyl 2-(((12-Oxoindolo[2,1-b]quinazolin-6(12H)-ylidene)amino)oxy)malonate] | 16.5 ± 0.7 µM | > 30 µM | – | > 30 µM | – | – | > 50 µM | > 50 µM | – | – | > 50 µM | > 50 µM | 211 °C | – | – | – | –
8 | COC(=O)ON=C1c2ccccc2-n2c1nc1ccccc1c2=O [Compound 5c, 6-(((Methoxycarbonyl)oxy)imino)indolo[2,1-b]quinazolin-12(6H)-one] | 1.7 ± 0.4 µM | 2.8 ± 0.5 µM | – | 0.7 ± 0.12 µM | 2.4 | 4.0 | > 50 µM | 8.1 ± 2.2 µM | – | – | 12.4 ± 1.3 µM | > 50 µM | 197 °C | – | – | – | –
9 | C#CCOC(=O)ON=C1c2ccccc2-n2c1nc1ccccc1c2=O [Compound 5d, 6-((((Prop-2-yn-1-yloxy)carbonyl)oxy)imino)indolo[2,1-b]quinazolin-12(6H)-one] | 0.95 ± 0.03 µM | 1.6 ± 0.1 µM | – | 0.32 ± 0.06 µM | 3.0 | 5.0 | > 50 µM | 4.4 ± 1.6 µM | – | – | 7 ± 0.9 µM | > 50 µM | 210 °C | – | – | – | –
10 | [Na+].[O-]/N=C1/c2ccccc2-c2nc3ccccc3nc21 [IQ-1S, reference compound] | – | – | – | – | – | – | – | – | dose-dependently inhibited | – | – | – | – | – | – | – | –
11 | O/N=C1\c2ccccc2-c2nc3cc(F)c(F)cc3nc21 [IQ–4f] | – | – | – | – | – | – | – | – | – | – | – | – | – | 0.17 µM | 0.52 µM | > 30 µM | –
12 | O/N=C1\c2ccccc2-c2nc3ccc(Cl)cc3nc21 [IQ–6i] | – | – | – | – | – | – | – | – | – | – | – | – | – | 1.1 µM | 0.71 µM | 21.5 µM | –
13 | N#CCO/N=C1\c2ccccc2-n2c1nc1ccccc1c2=O [TRYP–1e] | – | – | – | – | – | – | – | – | – | – | – | – | – | 19.5 µM | 1.5 µM | 17.5 µM | ~ 10 fold
